According to ChEMBL document CHEMBL5126611, “Design, Synthesis, and Biological Evaluations of Pyridyl 4,5,6,7-Tetrahydro-4,7-Methanobenzo[d]isoxazoles as Potent and Selective Inhibitors of 11β-Hydroxylase” (J Med Chem, 2022):

Key:
[1] = Clearance in Sprague-Dawley rat at 5 mg/kg, iv measured up to 24 hrs by LC-MS analysis; assay type: ADME, organism-based; settings: in vivo
[2] = Terminal half life in Sprague-Dawley rat at 5 mg/kg, iv measured up to 24 hrs by LC-MS analysis; assay type: ADME, organism-based; settings: in vivo, read-out: beta t1/2 (converted)
Cytochrome P450 2C9 = Cytochrome P450 2C9 (Homo sapiens, UniProt P11712); experiment: Inhibition of human hepatic recombinant CYP2C9 using cocktail of substrate by LC-MS/MS analysis; assay type: ADME
Cytochrome P450 2C19 = Cytochrome P450 2C19 (Homo sapiens, UniProt P33261); experiment: Inhibition of human hepatic recombinant CYP2C19 using cocktail of substrate by LC-MS/MS analysis; assay type: ADME
Cytochrome P450 3A4 = Cytochrome P450 3A4 (Homo sapiens, UniProt P08684); experiment: Inhibition of human hepatic recombinant CYP3A using cocktail of substrate by LC-MS/MS analysis; assay type: ADME
Cytochrome P450 1A2 = target: T1, Cytochrome P450 1A2 (Homo sapiens, UniProt P05177); experiment: Inhibition of human hepatic recombinant CYP1A2 using cocktail of substrate by LC-MS/MS analysis; assay type: ADME
T1 sequence (P05177 whole entry): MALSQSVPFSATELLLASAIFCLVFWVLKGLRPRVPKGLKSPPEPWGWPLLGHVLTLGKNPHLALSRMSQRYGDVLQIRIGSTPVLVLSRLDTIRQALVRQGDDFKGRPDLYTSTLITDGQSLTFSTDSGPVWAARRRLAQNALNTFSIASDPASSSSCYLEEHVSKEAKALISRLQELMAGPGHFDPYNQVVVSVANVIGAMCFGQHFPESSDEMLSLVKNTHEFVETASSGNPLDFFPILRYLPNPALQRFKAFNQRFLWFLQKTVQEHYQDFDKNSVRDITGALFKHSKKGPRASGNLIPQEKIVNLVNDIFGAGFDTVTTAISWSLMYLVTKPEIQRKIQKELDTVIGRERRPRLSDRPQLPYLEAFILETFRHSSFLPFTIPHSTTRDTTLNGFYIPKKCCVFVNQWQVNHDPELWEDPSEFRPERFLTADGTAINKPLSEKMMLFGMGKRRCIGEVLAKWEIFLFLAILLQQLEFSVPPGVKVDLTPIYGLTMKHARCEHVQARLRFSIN

[3] = target: T2, Steroid 17-alpha-hydroxylase/17,20 lyase (Homo sapiens, UniProt P05093); experiment: Inhibition of human CYP17 expressed in Escherichia coli; assay type: ADME
T2 sequence (P05093 whole entry): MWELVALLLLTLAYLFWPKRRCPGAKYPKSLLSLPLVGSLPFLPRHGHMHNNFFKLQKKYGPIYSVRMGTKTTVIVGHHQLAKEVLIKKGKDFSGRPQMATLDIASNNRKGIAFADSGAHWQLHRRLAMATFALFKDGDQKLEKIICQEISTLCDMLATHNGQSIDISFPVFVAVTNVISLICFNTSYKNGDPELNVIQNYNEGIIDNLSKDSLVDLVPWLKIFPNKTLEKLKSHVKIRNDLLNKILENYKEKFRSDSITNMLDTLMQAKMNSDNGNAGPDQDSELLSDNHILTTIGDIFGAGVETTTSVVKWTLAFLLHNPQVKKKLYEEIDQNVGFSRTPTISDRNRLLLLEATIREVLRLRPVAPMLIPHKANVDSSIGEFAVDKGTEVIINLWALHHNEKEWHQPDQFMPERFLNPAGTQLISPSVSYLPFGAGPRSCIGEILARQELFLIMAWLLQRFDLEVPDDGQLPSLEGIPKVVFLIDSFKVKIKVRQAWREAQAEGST

[4] = Terminal half life in Sprague-Dawley rat at 25 mg/kg, po measured up to 24 hrs by LC-MS analysis; assay type: ADME, organism-based; settings: in vivo, read-out: beta t1/2 (converted)
[5] = Cytotoxicity against human HepG2 cells assessed as reduction in cell viability; assay type: toxicity, cell-based; settings: read-out: LC50 (the source's name)
Aromatase = target: T3, Aromatase (Homo sapiens, UniProt P11511); experiment: Inhibition of human placental microsome CYP19 using [1beta-3H]-androstenedione as substrate; assay type: ADME, microsomes, Placenta
T3 sequence (P11511 whole entry): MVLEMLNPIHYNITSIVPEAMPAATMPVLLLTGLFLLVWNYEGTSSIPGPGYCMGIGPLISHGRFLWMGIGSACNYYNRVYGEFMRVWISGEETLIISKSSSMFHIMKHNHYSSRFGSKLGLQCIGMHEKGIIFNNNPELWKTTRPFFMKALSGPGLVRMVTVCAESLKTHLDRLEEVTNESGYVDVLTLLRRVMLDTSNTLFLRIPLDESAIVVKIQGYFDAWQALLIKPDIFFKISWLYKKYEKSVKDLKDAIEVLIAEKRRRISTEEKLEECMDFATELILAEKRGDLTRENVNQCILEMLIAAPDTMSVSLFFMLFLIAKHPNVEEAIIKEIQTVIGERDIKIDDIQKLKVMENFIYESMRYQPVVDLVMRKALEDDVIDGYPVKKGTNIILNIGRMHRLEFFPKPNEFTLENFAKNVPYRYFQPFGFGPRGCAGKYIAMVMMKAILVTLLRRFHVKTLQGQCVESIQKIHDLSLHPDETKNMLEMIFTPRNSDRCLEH

[6] = Tmax in Sprague-Dawley rat at 5 mg/kg, iv measured up to 24 hrs by LC-MS analysis; assay type: ADME, organism-based; settings: in vivo
[7] = Cytotoxicity against Chinese hamster V79 cells assessed as reduction in cell viability; assay type: toxicity, cell-based, Cricetulus griseus; settings: read-out: LC50 (the source's name)
[8] = target: T4, Cytochrome P450 11B1, mitochondrial (Homo sapiens, UniProt P15538); experiment: Inhibition of human CYP11B1 expressed in Chinese hamster V79 MZh cells using [14C]-deoxycorticosteron as substrate measured after 6 hrs by phosphoimager analysis; assay type: ADME, cell-based
T4 sequence (P15538 whole entry): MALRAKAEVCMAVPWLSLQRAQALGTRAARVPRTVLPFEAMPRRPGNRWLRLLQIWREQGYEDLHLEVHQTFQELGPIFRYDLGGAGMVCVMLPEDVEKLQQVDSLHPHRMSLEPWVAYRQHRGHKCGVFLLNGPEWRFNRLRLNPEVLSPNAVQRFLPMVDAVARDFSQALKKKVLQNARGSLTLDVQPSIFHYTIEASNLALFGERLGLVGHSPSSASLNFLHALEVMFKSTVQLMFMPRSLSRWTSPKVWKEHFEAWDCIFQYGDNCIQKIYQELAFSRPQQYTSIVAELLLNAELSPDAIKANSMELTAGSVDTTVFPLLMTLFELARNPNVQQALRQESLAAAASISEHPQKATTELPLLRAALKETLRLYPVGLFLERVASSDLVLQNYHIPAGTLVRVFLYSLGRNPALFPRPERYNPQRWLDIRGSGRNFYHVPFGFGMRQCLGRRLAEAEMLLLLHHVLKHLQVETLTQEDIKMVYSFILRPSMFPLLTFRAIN

Cytochrome P450 3A4, sequence (P08684 whole entry): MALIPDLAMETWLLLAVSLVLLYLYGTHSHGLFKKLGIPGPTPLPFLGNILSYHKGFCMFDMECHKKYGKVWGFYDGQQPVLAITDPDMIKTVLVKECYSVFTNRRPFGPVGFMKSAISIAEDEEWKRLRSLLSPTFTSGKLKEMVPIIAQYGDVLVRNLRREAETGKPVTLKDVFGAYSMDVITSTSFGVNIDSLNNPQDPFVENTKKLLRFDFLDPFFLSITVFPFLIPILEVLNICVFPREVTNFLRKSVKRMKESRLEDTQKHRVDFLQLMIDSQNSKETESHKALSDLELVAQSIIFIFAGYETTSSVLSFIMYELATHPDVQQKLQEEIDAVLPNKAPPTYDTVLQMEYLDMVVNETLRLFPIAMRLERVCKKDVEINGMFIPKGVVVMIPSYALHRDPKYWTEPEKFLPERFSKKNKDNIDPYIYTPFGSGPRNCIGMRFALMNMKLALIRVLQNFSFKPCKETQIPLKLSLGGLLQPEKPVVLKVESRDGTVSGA
Cytochrome P450 2C19, sequence (P33261 whole entry): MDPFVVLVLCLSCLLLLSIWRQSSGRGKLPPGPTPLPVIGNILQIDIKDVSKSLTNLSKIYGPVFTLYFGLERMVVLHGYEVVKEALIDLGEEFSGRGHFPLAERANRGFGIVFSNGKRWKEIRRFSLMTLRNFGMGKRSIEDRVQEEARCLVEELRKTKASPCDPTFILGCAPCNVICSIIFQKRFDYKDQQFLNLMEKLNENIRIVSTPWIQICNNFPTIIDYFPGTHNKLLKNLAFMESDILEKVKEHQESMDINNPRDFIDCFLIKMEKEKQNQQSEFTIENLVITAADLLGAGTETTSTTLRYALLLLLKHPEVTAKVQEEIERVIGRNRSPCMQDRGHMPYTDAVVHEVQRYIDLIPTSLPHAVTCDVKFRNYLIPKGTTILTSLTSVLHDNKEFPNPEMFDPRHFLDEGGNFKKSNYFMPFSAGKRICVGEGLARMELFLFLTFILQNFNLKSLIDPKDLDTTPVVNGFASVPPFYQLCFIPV
Cytochrome P450 2C9, sequence (P11712 whole entry): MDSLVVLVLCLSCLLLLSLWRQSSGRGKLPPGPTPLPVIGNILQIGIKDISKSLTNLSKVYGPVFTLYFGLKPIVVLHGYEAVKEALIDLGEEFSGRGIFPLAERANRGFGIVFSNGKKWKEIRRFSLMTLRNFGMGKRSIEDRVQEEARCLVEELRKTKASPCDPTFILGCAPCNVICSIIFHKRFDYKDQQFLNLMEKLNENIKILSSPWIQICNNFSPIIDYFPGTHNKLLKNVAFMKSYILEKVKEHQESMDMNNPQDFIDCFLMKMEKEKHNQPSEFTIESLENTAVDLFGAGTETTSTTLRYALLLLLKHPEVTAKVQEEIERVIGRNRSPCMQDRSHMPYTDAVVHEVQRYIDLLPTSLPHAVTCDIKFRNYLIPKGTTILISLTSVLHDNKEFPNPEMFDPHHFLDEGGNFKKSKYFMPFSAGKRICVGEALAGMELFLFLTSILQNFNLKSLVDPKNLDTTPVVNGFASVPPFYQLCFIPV

`O=C(Nc1ccc2[nH]ncc2c1)[C@]12ON=C(c3cccnc3)[C@H]1[C@@H]1CC[C@H]2C1` showed a CL [1] of 0.287 mL/min/kg, a half-life [2] of 4.5 h and an IC50 (Cytochrome P450 2C9) greater than 10 µM. For the same compound, the IC50 (Cytochrome P450 2C19) was greater than 10 µM, the IC50 (Cytochrome P450 3A4) was greater than 10 µM and the IC50 (Cytochrome P450 1A2) was greater than 10 µM. The IC50 [3] was greater than 10 µM, the half-life [4] was 4.6 h and the CC50 [5] was greater than 50 µM. It also gave an IC50 (Aromatase) greater than 10 µM, a Tmax [6] of 0 h and a CC50 [7] greater than 50 µM. For the same compound, the IC50 [8] was 0.009 µM.
